{"source": "patent US8076487B2", "about": "“Pyridone derivative and herbicide” (Kumiai Chemical Industry Co., Ltd., priority 2006, dated 2011)", "type_in_all_cases": "in vivo", "key": {"[1]": {"test_system": "Japanese bulrush (Scirpus juncoides Roxb.)", "test": "Test Example 1: herbicidal effect by soil application to paddy field", "conditions": "paddy field soil application; active ingredient 1,000 g per 1 hectare; wettable powder added dropwise to water surface the day after sowing; examined on the 21st day after application", "procedure,_shortened": "(§1)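 Under greenhouse conditions, seeds sown on puddled paddy soil in 100 cm2 pots under 3 cm of standing water received the test compound; injury was assessed with a standard scoring scheme three weeks (day 21) after treatment.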"}, "[2]": {"test_system": "early watergrass (Echinochloa oryzicola Vasing)", "test": "Test Example 1: herbicidal effect by soil application to paddy field", "conditions": "paddy field soil application; active ingredient 1,000 g per 1 hectare; wettable powder added dropwise to water surface the day after sowing; examined on the 21st day after application", "procedure,_shortened": "as §1"}, "[3]": {"test_system": "heartshape false pickerelweed (Monochoria vaginalis (Burm.f.) C.Presl)", "test": "Test Example 1: herbicidal effect by soil application to paddy field", "conditions": "paddy field soil application; active ingredient 1,000 g per 1 hectare; wettable powder added dropwise to water surface the day after sowing; examined on the 21st day after application", "procedure,_shortened": "as §1"}, "[4]": {"test_system": "barnyardgrass (Echinochloa crus-galli (L.) P. Beauv. var. crus-galli)", "test": "Test Example 2: herbicidal effect by soil application to upland field", "conditions": "soil surface spray, upland field soil, 1,000 g active ingredient per hectare, 21st day after application", "procedure,_shortened": "(§2)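 Soil surface treatment after sowing: wettable powder in water, 1,000 g a.i./ha, spray volume 1,000 L/ha. Greenhouse. Scored on a standard herbicidal scale at day 21.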"}, "[5]": {"test_system": "green foxtail (Setaria viridis (L.) P. Beauv.)", "test": "Test Example 2: herbicidal effect by soil application to upland field", "conditions": "soil surface spray, upland field soil, 1,000 g active ingredient per hectare, 21st day after application", "procedure,_shortened": "as §2"}, "[6]": {"test_system": "slender amaranth (Amaranthus viridis L.)", "test": "Test Example 2: herbicidal effect by soil application to upland field", "conditions": "soil surface spray, upland field soil, 1,000 g active ingredient per hectare, 21st day after application", "procedure,_shortened": "as §2"}, "[7]": {"test_system": "velvetleaf (Abutilon theophrasti medicus)", "test": "Test Example 2: herbicidal effect by soil application to upland field", "conditions": "soil surface spray, upland field soil, 1,000 g active ingredient per hectare, 21st day after application", "procedure,_shortened": "as §2"}, "[8]": {"test_system": "barnyardgrass (Echinochloa crus-galli (L.) P. Beauv. var. crus-galli)", "test": "Test Example 3: herbicidal effect by application to upland field (foliage treatment)", "conditions": "foliage treatment, plants grown two weeks, 1,000 g active ingredient per hectare, 14th day after application", "procedure,_shortened": "(§3)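 Foliage treatment, greenhouse: 2-week-old plants in field soil; wettable powder in water sprayed over the top at 1,000 g a.i./ha (1,000 L/ha); rating on day 14 post-application.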"}, "[9]": {"test_system": "green foxtail (Setaria viridis (L.) P. Beauv.)", "test": "Test Example 3: herbicidal effect by application to upland field (foliage treatment)", "conditions": "foliage treatment, plants grown two weeks, 1,000 g active ingredient per hectare, 14th day after application", "procedure,_shortened": "as §3"}, "[10]": {"test_system": "slender amaranth (Amaranthus viridis L.)", "test": "Test Example 3: herbicidal effect by application to upland field (foliage treatment)", "conditions": "foliage treatment, plants grown two weeks, 1,000 g active ingredient per hectare, 14th day after application", "procedure,_shortened": "as §3"}, "[11]": {"test_system": "velvetleaf (Abutilon theophrasti medicus)", "test": "Test Example 3: herbicidal effect by application to upland field (foliage treatment)", "conditions": "foliage treatment, plants grown two weeks, 1,000 g active ingredient per hectare, 14th day after application", "procedure,_shortened": "as §3"}}, "data": [{"smiles": "CC(C)Cn1c(C(F)(F)F)ccc(C(=O)C2=C(O)CCCC2=O)c1=O", "note": "[I-6]", "values": [{"measurement": "herbicidal effect, Scirpus juncoides Roxb.", "setting": "[1]", "result": "5 (90% or more of herbicidal effect and crop phytotoxicity)"}, {"measurement": "herbicidal effect, Echinochloa oryzicola Vasing", "setting": "[2]", "result": "5 (90% or more of herbicidal effect and crop phytotoxicity)"}, {"measurement": "herbicidal effect, Monochoria vaginalis (Burm. f.) C. Presl", "setting": "[3]", "result": "5 (90% or more of herbicidal effect and crop phytotoxicity)"}, {"measurement": "herbicidal effect (index), Barnyardgrass", "setting": "[4]", "result": "5 (90% or more of herbicidal effect and crop phytotoxicity)"}, {"measurement": "herbicidal effect (index), Green Foxtail", "setting": "[5]", "result": "5 (90% or more of herbicidal effect and crop phytotoxicity)"}, {"measurement": "herbicidal effect (index), Slender Amaranth", "setting": "[6]", "result": "5 (90% or more of herbicidal effect and crop phytotoxicity)"}, {"measurement": "herbicidal effect (index), Velvetleaf", "setting": "[7]", "result": "5 (90% or more of herbicidal effect and crop phytotoxicity)"}, {"measurement": "herbicidal effect (index), Barnyardgrass", "setting": "[8]", "result": "5 (90% or more of herbicidal effect and crop phytotoxicity)"}, {"measurement": "herbicidal effect (index), Green Foxtail", "setting": "[9]", "result": "5 (90% or more of herbicidal effect and crop phytotoxicity)"}, {"measurement": "herbicidal effect (index), Slender Amaranth", "setting": "[10]", "result": "5 (90% or more of herbicidal effect and crop phytotoxicity)"}, {"measurement": "herbicidal effect (index), Velvetleaf", "setting": "[11]", "result": "5 (90% or more of herbicidal effect and crop phytotoxicity)"}]}, {"smiles": "CCC(C)n1c(C(F)(F)F)ccc(C(=O)C2=C(O)CCCC2=O)c1=O", "note": "(stereo not drawn) [I-7]", "values": [{"measurement": "herbicidal effect, Scirpus juncoides Roxb.", "setting": "[1]", "result": "5 (90% or more of herbicidal effect and crop phytotoxicity)"}, {"measurement": "herbicidal effect, Echinochloa oryzicola Vasing", "setting": "[2]", "result": "5 (90% or more of herbicidal effect and crop phytotoxicity)"}, {"measurement": "herbicidal effect, Monochoria vaginalis (Burm. f.) C. Presl", "setting": "[3]", "result": "5 (90% or more of herbicidal effect and crop phytotoxicity)"}, {"measurement": "herbicidal effect (index), Barnyardgrass", "setting": "[4]", "result": "5 (90% or more of herbicidal effect and crop phytotoxicity)"}, {"measurement": "herbicidal effect (index), Green Foxtail", "setting": "[5]", "result": "5 (90% or more of herbicidal effect and crop phytotoxicity)"}, {"measurement": "herbicidal effect (index), Slender Amaranth", "setting": "[6]", "result": "5 (90% or more of herbicidal effect and crop phytotoxicity)"}, {"measurement": "herbicidal effect (index), Velvetleaf", "setting": "[7]", "result": "5 (90% or more of herbicidal effect and crop phytotoxicity)"}, {"measurement": "herbicidal effect (index), Barnyardgrass", "setting": "[8]", "result": "5 (90% or more of herbicidal effect and crop phytotoxicity)"}, {"measurement": "herbicidal effect (index), Green Foxtail", "setting": "[9]", "result": "5 (90% or more of herbicidal effect and crop phytotoxicity)"}, {"measurement": "herbicidal effect (index), Slender Amaranth", "setting": "[10]", "result": "5 (90% or more of herbicidal effect and crop phytotoxicity)"}, {"measurement": "herbicidal effect (index), Velvetleaf", "setting": "[11]", "result": "5 (90% or more of herbicidal effect and crop phytotoxicity)"}]}, {"smiles": "CCCCCCn1c(C(F)(F)F)ccc(C(=O)C2=C(O)CCCC2=O)c1=O", "note": "[I-9]", "values": [{"measurement": "herbicidal effect, Scirpus juncoides Roxb.", "setting": "[1]", "result": "5 (90% or more of herbicidal effect and crop phytotoxicity)"}, {"measurement": "herbicidal effect, Echinochloa oryzicola Vasing", "setting": "[2]", "result": "5 (90% or more of herbicidal effect and crop phytotoxicity)"}, {"measurement": "herbicidal effect, Monochoria vaginalis (Burm. f.) C. Presl", "setting": "[3]", "result": "5 (90% or more of herbicidal effect and crop phytotoxicity)"}, {"measurement": "herbicidal effect (index), Barnyardgrass", "setting": "[4]", "result": "4 (70 to less than 90% of herbicidal effect and crop phytotoxicity)"}, {"measurement": "herbicidal effect (index), Green Foxtail", "setting": "[5]", "result": "4 (70 to less than 90% of herbicidal effect and crop phytotoxicity)"}, {"measurement": "herbicidal effect (index), Slender Amaranth", "setting": "[6]", "result": "5 (90% or more of herbicidal effect and crop phytotoxicity)"}, {"measurement": "herbicidal effect (index), Velvetleaf", "setting": "[7]", "result": "5 (90% or more of herbicidal effect and crop phytotoxicity)"}, {"measurement": "herbicidal effect (index), Barnyardgrass", "setting": "[8]", "result": "5 (90% or more of herbicidal effect and crop phytotoxicity)"}, {"measurement": "herbicidal effect (index), Green Foxtail", "setting": "[9]", "result": "4 (70 to less than 90% of herbicidal effect and crop phytotoxicity)"}, {"measurement": "herbicidal effect (index), Slender Amaranth", "setting": "[10]", "result": "5 (90% or more of herbicidal effect and crop phytotoxicity)"}, {"measurement": "herbicidal effect (index), Velvetleaf", "setting": "[11]", "result": "5 (90% or more of herbicidal effect and crop phytotoxicity)"}]}]}
